Laboratory results published in US20050287600A1, “Method for screening for agents preventing aggregation of potentially amyloidogenic proteins” (priority 2002, published 2005).

Target: T1, human ataxin-3 (Q36) (Homo sapiens, UniProt P54252, INS305QQQQQQQQQQQQQQQQQQQQQQQQQQ)
T1 construct: glutathione S-transferase (GST), PreScission Protease site (N, cleaved yes); made in house; host or cells: Escherichia coli BL21 codon plus RIL (plasmid pGEX6P-1)
Assay: Heat-induced amyloid fibre formation / aggregation screening assay
Format: biochemical
Conditions: 10 microM Congo red; ataxin-3 (Q36) about 0.1 mg/ml in 10 mM sodium phosphate, pH 7.0, incubated at growing temperatures
Experimental: The screening procedure encompasses a) mixing the protein of interest with the compound to be assayed for its ability to prevent aggregation b) gradually increasing the temperature c) detecting the appearance of amyloid fibres by turbidimetric measurements, and/or by visual inspection of the mixture, and/or by determining its protein content before and after spinning down the aggregated protein. In the control sample, no compound is added so heating results in amyloid fibre formation and ensuing protein precipitation and clouding of the solution. In contrast, a compound capable of preventing aggregation also prevents or reduces clouding, along with protein precipitation on centrifugation. Protein concentration is typically about 0.1 mg per ml. Human ataxin-3 (Q36) was dissolved in 10 mM sodium phosphate, pH 7.0 at a final concentration of about 0.1 mg/ml and incubated at growing temperatures. […] Congo red is a well-known antiamyloidogenic compound. On incubating human ataxin-3 (Q36) in the presence of 10 microM Congo red and otherwise under the conditions depicted in example 3, protein aggregation phenomena observed in the absence of the dye were prevented.

T1 sequence (P54252 with tags, fused parts or gaps with the stated changes): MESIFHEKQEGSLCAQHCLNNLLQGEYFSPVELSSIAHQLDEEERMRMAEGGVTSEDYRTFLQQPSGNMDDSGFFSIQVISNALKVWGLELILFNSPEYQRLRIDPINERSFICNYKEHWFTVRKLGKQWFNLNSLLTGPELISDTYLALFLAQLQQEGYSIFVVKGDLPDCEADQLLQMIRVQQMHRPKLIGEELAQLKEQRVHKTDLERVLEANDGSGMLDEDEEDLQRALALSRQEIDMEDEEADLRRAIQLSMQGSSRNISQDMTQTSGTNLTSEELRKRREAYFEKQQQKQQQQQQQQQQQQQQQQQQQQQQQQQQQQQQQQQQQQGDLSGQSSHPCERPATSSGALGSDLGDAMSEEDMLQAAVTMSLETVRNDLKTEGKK

`Nc1c(/N=N/c2ccc(-c3ccc(/N=N/c4cc(S(=O)(=O)O)c5ccccc5c4N)cc3)cc2)cc(S(=O)(=O)O)c2ccccc12` [Congo red] was tested, and the “protein aggregation (amyloid fibre formation) on heating” value was “prevented”.
